One may read the pIC50 as the IC50 on a negative log10 scale, so that one unit is a factor of ten.

pIC50: −log10 of the molar value.

This assay deals with T1, PAF receptor (Homo sapiens, UniProt P25105).
T1 construct: washed human platelet membranes; from tissue; host or cells: human platelets (platelet concentrates from a hospital blood bank), lysed washed membranes
T1 sequence (P25105 whole entry): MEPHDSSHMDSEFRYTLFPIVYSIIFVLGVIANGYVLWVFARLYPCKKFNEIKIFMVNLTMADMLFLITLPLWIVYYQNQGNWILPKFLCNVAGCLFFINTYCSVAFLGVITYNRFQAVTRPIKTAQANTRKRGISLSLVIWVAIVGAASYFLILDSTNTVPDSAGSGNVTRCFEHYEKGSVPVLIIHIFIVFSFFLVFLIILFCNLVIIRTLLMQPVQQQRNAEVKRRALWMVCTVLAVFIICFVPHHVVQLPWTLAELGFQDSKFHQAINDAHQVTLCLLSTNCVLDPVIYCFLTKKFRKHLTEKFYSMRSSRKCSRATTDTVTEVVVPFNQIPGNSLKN
As to the kind of experiment: Inhibition of [^3 H]-PAF binding to washed human platelet membranes. Conditions: 0.5 nM [^3 H]-PAF, 1 hour at 0° C., pH 7.0, 0.25% BSA. How it is done: Inhibition of [^3 H]-PAF binding to washed human platelet membranes
In common with the compounds of the invention (general formula I) those of Examples 1-13 it PAF-induced functions at both cellular and tissue levels by inhibition of PAF binding to its specific receptor site. The inhibition of [^3 H]-PAF binding to washed human platelet membranes by representative compounds was determined by isotopic labelling and filtration techniques. Platelet concentrates were obtained from a hospital blood bank. These platelet concentrates (500-2500 ml.) were centrifuged at 800 rpm for 10 minutes in a SORVALL RC3B centrifuge to remove the red blood cells present. (The word SORVALL is a trade mark.) The supenatant was subsequently centrifuged at 3,000 rpm in a SORVALL RC3B centrifuge to pellet the platelets present. The platelet rich pellets were resuspended in a minimum volume of buffer (150 mM NaCl, 10 mM Tris, 2 mM EDTA, pH 7.5) and layered onto Ficoll-Paque gradients, 9 ml platelet concentrate to 2 ml Ficoll, and centrifuged at 1,900 rpm for 15 minutes in a SORVALL RT6000 centrifuge. This step removes the residual red blood cells and other nonspecific material such as lymphocytes from the preparation. The platelets which form a band between the plasma and the Ficoll were removed, resuspended in the above buffer and centrifuged at 3,000 rpm for 10 minutes in a SORVALL RT6000 centrifuge. […]
The assay was conducted by preparing a series of Tris-buffered solutions of the selected antagonist of predetermined concentrations. […] Each washed residue was dried under vacuum on a sampling manifold and placed into vials containing 20 ml of OPTIPHASE MP scintillation fluid and the radioactivity counted in a liquid scintillation counter. (The word OPTIPHASE is a trade mark.) Defining the counts for total binding with antagonist from a test sample as "TBA"; the counts for total binding from the control sample C1 as "TB"; and the counts for nonspecific binding from the control sample C2 as "NSB", the percent inhibition of each test antagonist can be determined by the following equation: […]
As for `Cc1nc2ccccc2n1C[C@H]1C[C@@H]2C[C@@H](c3ccc(F)cc3)O[C@@H]2O1` (relative stereo) [1(d), (2R*, 3aS*, 5S*, 6aR*)-5-(4-Fluorophenyl)-2-(1H-2-methylbenzimidazol-1-ylmethyl)hexahydrofuro[2,3-b]furan], the pIC50 was 5.10.

In turn, `Cc1nc2ccccc2n1C[C@H]1C[C@@H]2C[C@H](c3ccc(F)cc3)O[C@@H]2O1` (relative stereo) [1(e), (2R*, 3aS*, 5R*, 6aR*)-5-(4-fluorophenyl)-2-(1H-2-methylbenzimidazol-1-ylmethyl)hexahydrofuro[2,3-b]furan] gave a pIC50 of 6.35.

In the case of `Cc1nc2cnccc2n1C[C@H]1C[C@@H]2C[C@@H](c3ccc(F)cc3)O[C@@H]2O1` (relative stereo) [Example 2, 5-(4-Fluorophenyl)-2-(1H-2-methylimidazo[4,5-c]pyrid-1-ylmethyl)hexahydrofuro[2,3-b]furan], the negative-log IC50 (pIC50) was 6.62.

The record behind these values is patent publication US5409937A, “Hexahydrofuro(2,3-b)furans as PAF antagonists” (British Biotech Pharmaceuticals Limited, priority 1991, dated 1995).
